Reference: the NIST ThermoML archive (doi:10.1016/j.fluid.2017.12.001)

Assay: xn = mol fraction of the nth substance listed
Conditions: 100.9 kPa, Liquid; for viscosity: Concentric cylinders viscometry; for speed of sound: Single path-length method; for mass density: Vibrating tube method

CCCC(=O)[O-].CC[NH2+]CC [diethylammonium butanoate] + O
Conditions | mass density [kg/m3] | speed of sound [m/s] | viscosity [mPa·s]
323.15 K, x1 = 0.0122 | – | – | 0.84
323.15 K, x1 = 0.0123 | 990.45 | 1618.6 | –
323.15 K, x1 = 0.0451 | – | – | 1.72
323.15 K, x1 = 0.0453 | 991.08 | 1724.2 | –
323.15 K, x1 = 0.0999 | – | – | 3.8
323.15 K, x1 = 0.1005 | 984.28 | 1708.8 | –
323.15 K, x1 = 0.143 | – | – | 5.75
323.15 K, x1 = 0.1439 | 971.05 | 1672.4 | –
323.15 K, x1 = 0.2051 | – | – | 8.98
323.15 K, x1 = 0.2067 | 964.37 | 1612.6 | –
323.15 K, x1 = 0.3064 | – | – | 14.26
323.15 K, x1 = 0.3096 | 949.4 | 1531.7 | –
323.15 K, x1 = 0.4879 | – | – | 19.64
323.15 K, x1 = 0.4951 | 926.37 | 1446.2 | –
323.15 K, x1 = 0.6684 | – | – | 20.46
323.15 K, x1 = 0.6812 | 918.45 | 1384.7 | –
323.15 K, x1 = 0.7974 | 900.35 | 1379.5 | –
323.15 K, x1 = 0.974 | 895.2 | 1343.3 | 18.14
325.65 K, x1 = 0.0122 | – | – | 0.8
325.65 K, x1 = 0.0451 | – | – | 1.62
325.65 K, x1 = 0.0999 | – | – | 3.53
325.65 K, x1 = 0.143 | – | – | 5.31
325.65 K, x1 = 0.2051 | – | – | 8.24
325.65 K, x1 = 0.3064 | – | – | 12.94
325.65 K, x1 = 0.4879 | – | – | 17.73
325.65 K, x1 = 0.6684 | – | – | 18.49
325.65 K, x1 = 0.974 | – | – | 16.45
328.15 K, x1 = 0.0122 | – | – | 0.75
328.15 K, x1 = 0.0451 | – | – | 1.52
328.15 K, x1 = 0.0999 | – | – | 3.29
328.15 K, x1 = 0.143 | – | – | 4.92
328.15 K, x1 = 0.2051 | – | – | 7.58
328.15 K, x1 = 0.3064 | – | – | 11.79
328.15 K, x1 = 0.4879 | – | – | 16.02
328.15 K, x1 = 0.6684 | – | – | 16.76
328.15 K, x1 = 0.974 | – | – | 14.94
330.65 K, x1 = 0.0122 | – | – | 0.72
330.65 K, x1 = 0.0451 | – | – | 1.44
330.65 K, x1 = 0.0999 | – | – | 3.07
330.65 K, x1 = 0.143 | – | – | 4.57
330.65 K, x1 = 0.2051 | – | – | 6.99
330.65 K, x1 = 0.3064 | – | – | 10.77
330.65 K, x1 = 0.4879 | – | – | 14.54
330.65 K, x1 = 0.6684 | – | – | 15.23
330.65 K, x1 = 0.974 | – | – | 13.61
333.15 K, x1 = 0.0122 | – | – | 0.69
333.15 K, x1 = 0.0451 | – | – | 1.36
333.15 K, x1 = 0.0999 | – | – | 2.87
333.15 K, x1 = 0.143 | – | – | 4.25
333.15 K, x1 = 0.2051 | – | – | 6.46
333.15 K, x1 = 0.3064 | – | – | 9.86
333.15 K, x1 = 0.4879 | – | – | 13.24
333.15 K, x1 = 0.6684 | – | – | 13.86
333.15 K, x1 = 0.974 | – | – | 12.38
335.65 K, x1 = 0.0122 | – | – | 0.66
335.65 K, x1 = 0.0451 | – | – | 1.29
335.65 K, x1 = 0.0999 | – | – | 2.7
335.65 K, x1 = 0.143 | – | – | 3.96
335.65 K, x1 = 0.2051 | – | – | 5.98
335.65 K, x1 = 0.3064 | – | – | 9.05
335.65 K, x1 = 0.4879 | – | – | 12.07
335.65 K, x1 = 0.6684 | – | – | 12.64
335.65 K, x1 = 0.974 | – | – | 11.33
338.15 K, x1 = 0.0122 | – | – | 0.64
338.15 K, x1 = 0.0451 | – | – | 1.22
338.15 K, x1 = 0.0999 | – | – | 2.53
338.15 K, x1 = 0.143 | – | – | 3.7
338.15 K, x1 = 0.2051 | – | – | 5.55
338.15 K, x1 = 0.3064 | – | – | 8.33
338.15 K, x1 = 0.4879 | – | – | 11.03
338.15 K, x1 = 0.6684 | – | – | 11.56
338.15 K, x1 = 0.974 | – | – | 10.37
340.65 K, x1 = 0.0122 | – | – | 0.61
340.65 K, x1 = 0.0451 | – | – | 1.16
340.65 K, x1 = 0.0999 | – | – | 2.39
340.65 K, x1 = 0.143 | – | – | 3.46
340.65 K, x1 = 0.2051 | – | – | 5.16
340.65 K, x1 = 0.3064 | – | – | 7.68
340.65 K, x1 = 0.4879 | – | – | 10.11
340.65 K, x1 = 0.6684 | – | – | 10.59
340.65 K, x1 = 0.974 | – | – | 9.48
343.15 K, x1 = 0.0122 | – | – | 0.59
343.15 K, x1 = 0.0451 | – | – | 1.1
343.15 K, x1 = 0.0999 | – | – | 2.25
343.15 K, x1 = 0.143 | – | – | 3.24
343.15 K, x1 = 0.2051 | – | – | 4.81
343.15 K, x1 = 0.3064 | – | – | 7.09
343.15 K, x1 = 0.4879 | – | – | 9.28
343.15 K, x1 = 0.6684 | – | – | 9.64
343.15 K, x1 = 0.974 | – | – | 8.7
